# In article PMC7774954, “Interactomic affinity profiling by holdup assay: Acetylation and distal residues impact the PDZome-binding specificity of PTEN phosphatase” (PLoS ONE, 2020):
# System: 266 human PDZ domains (PDZome)
# Experiment: Holdup assay (chromatographic retention, PDZome-binding profile, BI)
# Design: key to maximal BI / Max BI / BI: binding intensity: 0.00 = no binding, 1.00 = maximal binding; Log(Kd): unit not given here
# Method: The holdup method is a chromatographic approach in solution developed in our group that allows to measure the binding strength of a peptide, attached to a resin, against a library of domains of a same family. We initially proposed this method to explore the interaction between PBM peptides and the human PDZ domains. Briefly, a soluble cell lysate containing individually overexpressed PDZ domain is incubated until equilibrium with a calibrated amount of streptavidin-resin saturated either with the target biotinylated PBM peptide or with biotin as a reference. The flow-throughs containing the unbound protein fraction are recovered by filtration and loaded on a capillary electrophoresis instrument to quantify the amount of remaining free PDZ. The stronger the steady-state depletion of the PDZ domain in the flow-through as compared to the reference, the stronger the PDZ/PBM binding interaction. The assay is particularly suited to quantitatively evaluate and compare large numbers of interactions. This method delivers, for each PBM/PDZ pair, a "binding intensity" (BI), whose value can in principle range from 0.00 (no binding event detected) to 1.00 (maximal binding event). The approach has been automated and the human PDZ library was recently extended to the complete 266 PDZ domains known in human proteome. […] The high accuracy and efficiency of the holdup assay have been validated previously. Very recently, a manual version of the holdup assay with purified samples and using widespread benchtop equipment has been implemented and has proven to be reliable.
# The 266 PDZ domains that constitute the PDZ library (“PDZome V.2”) used in the present work were produced using constructs with optimized boundaries as described previously. All the genes were fused to Maltose-Binding Protein (MBP) or Thioredoxin (THR) tag often used to facilitate the solubilisation of the over-expressed protein, by cloning them into the pETG41A or pETG20A plasmid, respectively. […] The expressed tag-PDZ concentrations were quantified using capillary gel electrophoresis and cell lysates were diluted to reach approximately 5 μM tag-PDZ before freezing in 96-well plates. A detailed protocol of the PDZ library production, expression and benchmarking can be found in [32]. PDZ domains are named according to their originating protein name followed by the PDZ number (e.g. NHERF1-1 as the first PDZ domain of the NHERF1 protein).
# The holdup assay was performed on a Tecan freedom Evo200 robot with 384-well plates in singlicate for the three 11-mer PTEN variants and the 13-mer PTEN peptide as described in [31, 32]. Briefly, prior to interaction assay, 2.5 μL of streptavidin resin was saturated in each well with 20 μL of biotinylated PBM peptides (42 μM) and then washed twice with an excess of free biotin, while the reference resin was incubated only with biotin. Right before the holdup experiment, the PDZ library was spiked with an internal standard of lysozyme. Then, the biotin- or PBM-saturated resin was incubated, each in a distinct well of a 384-well plate, with complete cell lysates diluted so that the concentration of the tag-PDZ present in the crude extract is adjusted at 4 μM. After a sufficient time to reach complex equilibrium (15 min.), a fast and mild filtration step is performed and the tag-PDZ concentrations were measured by capillary electrophoresis instrument (LabChip GXII, PerkinElmer, Massachusets, USA). Standard markers were used to convert migration time into molecular weight on the LabChip software and inappropriate molecular weight markers were corrected or excluded.
# Holdup data quality check and processing […]
# [1] = PDZ domain PARD3-1, first of two lines so named (r186)
compound,measurement,setting,value
CC[C@H](C)[C@H](NC(=O)[C@H](CCC(N)=O)NC(=O)[C@@H](NC(=O)[C@H](Cc1c[nH]cn1)NC(=O)[C@H](CCC(N)=O)NC(=O)[C@H](CC(=O)O)NC(=O)[C@H](CCC(=O)O)NC(=O)[C@H](CC(=O)O)NC(=O)CCC(=O)NCCCOCCOCCOCCCNC(=O)CCCC[C@@H]1SC[C@@H]2NC(=O)N[C@@H]21)[C@@H](C)O)C(=O)N[C@H](C(=O)N[C@@H](CCCCN)C(=O)N[C@H](C(=O)O)C(C)C)[C@@H](C)O [PTEN_11],BI,PDZ domain MPDZ-2,-0.043
same,BI,PDZ domain MPDZ-3,0.079
same,BI,PDZ domain MPDZ-4,-0.037
same,BI,PDZ domain MPDZ-5,0.085
same,BI,PDZ domain MPDZ-6,-0.029
same,BI,PDZ domain MPDZ-7,0.154
same,BI,PDZ domain MPDZ-8,0.119
same,BI,"PDZ domain MPDZ-9 (gene NHERF2, 2)",-0.075
same,BI,PDZ domain MPP1-1,-0.033
same,BI,PDZ domain MPP2-1,-0.076
same,BI,PDZ domain MPP3-1,0.035
same,BI,PDZ domain MPP4-1,0.041
same,BI,PDZ domain MPP5-1,-0.091
same,BI,PDZ domain MPP6-1,-0.062
same,BI,PDZ domain MPP7-1,0.034
same,BI,PDZ domain NHERF1-2,0.094
same,BI,PDZ domain NHERF3-1,0.153
same,BI,PDZ domain NHERF3-2,0.063
same,BI,PDZ domain NHERF3-3,0.131
same,BI,PDZ domain NHERF3-4,-0.013
same,BI,PDZ domain NHERF4-1,-0.04
same,BI,PDZ domain NHERF4-2,-0.071
same,BI,PDZ domain NHERF4-3,0.06
same,BI,PDZ domain NHERF4-4,-0.01
same,BI,PDZ domain NOS1-1,0.016
same,BI,[1],0.172
same,Log(Kd),[1],3.7949
same,BI,"PDZ domain PARD3-1, second of two lines so named (r187)",0.048
same,BI,PDZ domain PARD3B-1,-0.032
same,BI,PDZ domain PARD3B-2,0.045
same,BI,PDZ domain PARD3B-3,-0.026
same,BI,PDZ domain PARD6G-1,-0.088
same,BI,PDZ domain PDLIM2-1,-0.001
same,BI,PDZ domain PDLIM3-1,-0.059
same,BI,PDZ domain PDLIM4-1,-0.02
same,BI,PDZ domain PDLIM5-1,0.07
same,BI,PDZ domain PDLIM7-1,0.032
same,BI,PDZ domain PDZD2-1,-0.006
same,BI,PDZ domain PDZD2-3,-0.072
same,BI,PDZ domain PDZD2-4,-0.02
same,BI,PDZ domain PDZD2-5,0.028
same,BI,PDZ domain PDZD2-6,0.115
same,BI,PDZ domain PDZD4-1,0.019
same,BI,PDZ domain PDZD7-1,-0.032
same,BI,PDZ domain PDZD7-2,0.087
same,BI,PDZ domain PDZD7-3,0.658
same,BI,PDZ domain PDZD8-1,-0.04
same,BI,PDZ domain PDZD11-1,-0.013
same,BI,PDZ domain PDZRN4-1,0
same,BI,PDZ domain PDZRN4-2,0.005
same,BI,PDZ domain PREX1-1,0.099
same,BI,PDZ domain PREX2-2,-0.021
same,BI,PDZ domain PRX-1,-0.1
same,BI,PDZ domain PSCDBP-1,-0.154
same,BI,PDZ domain PSMD9-1,-0.01
same,BI,PDZ domain PTPN3-1,0.075
same,BI,PDZ domain PTPN4-1,0.017
same,BI,PDZ domain PTPN13-1,0.143
same,BI,PDZ domain PTPN13-5,-0.041
same,BI,PDZ domain RAPGEF2-1,-0.045
same,BI,PDZ domain RHPN2-1,-0.079
same,BI,PDZ domain SCRIB-1,0.062
same,BI,PDZ domain SCRIB-2,-0.183
same,BI,PDZ domain SCRIB-4,0.061
same,BI,PDZ domain SHANK1-1,0.251
same,BI,PDZ domain SHANK2-1,0.071
same,BI,PDZ domain SHANK3-1,0.106
same,BI,PDZ domain SHROOM2-1,0.022
same,BI,PDZ domain SHROOM4-1,-0.001
same,BI,PDZ domain SIPA1L2-1,0.019
same,BI,PDZ domain SNTA1-1,0.18
same,BI,PDZ domain SNTB1-1,0.156
same,BI,PDZ domain SNTG1-1,0.078
same,BI,PDZ domain SNTG2-1,0.056
same,BI,PDZ domain STXB4-1,-0.026
same,BI,PDZ domain SYNJ2BP-1,0.089
same,BI,PDZ domain SYNP2-1,-0.045
same,BI,PDZ domain SYNPO2L-1,-0.053
same,BI,PDZ domain TIAM1-1,0.032
same,BI,PDZ domain TIAM2-1,0.033
same,BI,PDZ domain TJP1-1,0.119
same,BI,PDZ domain TJP1-2,-0.039
same,BI,PDZ domain TJP2-3,0.064
same,BI,PDZ domain TJP3-1,0.015
same,BI,PDZ domain TJP3-2,0.017
same,BI,PDZ domain TX1B3-1,-0.022
same,BI,PDZ domain USH1C-1,-0.104
same,number of PDZ domains identified as potential binders (BI>0.20),"holdup, singlicate, threshold BI>0.20",19 PDZ domains
same,maximal BI,"holdup, singlicate, highest BI in the PDZome profile, BI standard error ~0.07",0.71
same,binding of several PDZ domains (in words),including several ones from MAGI and NHERF,detectably bound
same,Max BI,maximum over PDZome,0.71
